Assay results taken from PMC7708037, “Targeting OGG1 arrests cancer cell proliferation by inducing replication stress” (Nucleic Acids Research, 2020).
“Also recorded” adds a separate entry of the source.

Experiments:
[1] = system: primary blood cells (CD34+ cells, CD34- fraction from cord blood, PBMCs); assay: Resazurin viability of primary blood cells; type: cell-based, human
Method: Cells were seeded in 96- or 384-well plates and incubated for 3 days for combination experiments or 5 days for single-drug exposure experiments. Resazurin (R7017, SigmaAldrich) was added to a final concentration of 0.01 mg/ml resazurin and fluorescence was measured at ex530/em590 after incubation for 2, 4 or 6 h. Curves were fitted using XLfit software (IDBS) or Prism 8.0 (Graphpad Software), and EC50 values were determined.
Peripheral blood mononuclear Cells (PBMC) were isolated from peripheral whole blood from controls using Histopaque®-1077 (Sigma-Aldrich, San Luis, MO, USA) following the manufacturer's instructions. Briefly, peripheral blood was collected in heparin and diluted with equal amount of PBS. Next, blood was centrifuged with Histopaque®-1077 at 400 × g for 30 min at room temperature and the PBMC layer was recovered. All steps were processed within 4 h after blood extraction.
Isolation of total CD34+ cells was performed from umbilical cord blood samples (CB) from healthy donors distributed from Centro de Transfusión de la Comunidad de Madrid. All samples were collected under written consent and institutional review board agreement. CD34+ cells was obtained from mononuclear cells were separated by fractionation in Ficoll-hypaque according to manufacturer's recommendations (GE Healthcare). […]

[2] = system: EdU incorporation in A3 cells; assay: EdU flow cytometry analysis; type: cell-based, human; conditions: 10 μM
Method: At the indicated time points, compound/dox treated cells were incubated in medium containing 10 μM 5-ethynyl-2′-deoxyuridine (EdU) (Thermo Fisher, A10044) for 20 min. Next, cells were fixed in cold 70% ethanol overnight. The azide alkyne Huisgen cycloaddition (‘Click reaction’) was carried out according to the Click-iT EdU Imaging Manual (Thermo Fisher) using various fluorescent dyes: Alexa Fluor® 488 azide (Thermo Fisher, A10266), Alexa Fluor® 647 azide (Thermo Fisher, A10277), or TAMRA azide (Thermo Fisher, T10182), depending on assay conditions. Samples were incubated with Alexa Fluor® 488 Mouse anti-H2AX (pS139) (BD Biosciences, 560445) overnight at 4°C and finally stained with DAPI solution [10 μg/ml DAPI (Sigma, D9542), 0.1 mg/ml RNase A (Thermo Fisher, EN0531), 1% BSA in PBS] for 20 min at room temperature. Measurements were done using a Navios Flow Cytometer (Beckman Coulter). Data was analyzed using Kaluza® Flow Analysis Software (Beckman Coulter).
Supplementary Fig. S7: EdU incorporation in OGG1 perturbed A3 cells. A. Cells harboring the indicated shRNA constructs were treated with doxycycline for 48, 96 and 144 h and pulsed with EdU for 20 minutes before fixation, followed by Alexa-488 conjugation by click chemistry and quantitation by flow cytometry. […] Statistical significance was determined using unpaired, two-sided T-tests (*, […]

O=C(Nc1ccc(I)cc1)N1CCC(n2c(=O)[nH]c3c(Br)cccc32)CC1 [TH5487]
Tolerance by hematopoietic primary cells ([1]; CD34+ cells, resting and activated CD34- cells from umbilical cord blood, healthy donors): well tolerated
EC50 ([1]; primary blood cells from healthy donors, activated or not, read-out: EC50, average over primary blood cells): 35.1 ± 20 µM
DNA synthesis (EdU incorporation) [2]: only detectable after 96 h treatment; also recorded: DNA synthesis was reduced
